In ChEMBL document CHEMBL4354881, “Optimization of Potent ATAD2 and CECR2 Bromodomain Inhibitors with an Atypical Binding Mode” (J Med Chem, 2020):

Tests used:
[1] = target: Bromodomain-containing protein 4 (Homo sapiens, UniProt O60885, Y390A); test: Displacement of Alexa Fluor 647-labeled ligand from BRD4 BD1 Y390A mutant (1 to 477 residue) (unknown origin) measured after 30 mins by TR-FRET assay
[2] = target: Bromodomain-containing protein 4 (Homo sapiens, UniProt O60885); test: Displacement of Alexa Fluor 647-labeled ligand from BRD4 BD2 (unknown origin) measured after 30 mins by TR-FRET assay
[3] = target: T1, ATPase family AAA domain-containing protein 2B (Homo sapiens, UniProt Q9ULI0); test: Binding affinity to human partial length ATAD2B (Q955 to R1082 residues) expressed in bacterial expression system by BROMOscan assay
T1 sequence (Q9ULI0 whole entry): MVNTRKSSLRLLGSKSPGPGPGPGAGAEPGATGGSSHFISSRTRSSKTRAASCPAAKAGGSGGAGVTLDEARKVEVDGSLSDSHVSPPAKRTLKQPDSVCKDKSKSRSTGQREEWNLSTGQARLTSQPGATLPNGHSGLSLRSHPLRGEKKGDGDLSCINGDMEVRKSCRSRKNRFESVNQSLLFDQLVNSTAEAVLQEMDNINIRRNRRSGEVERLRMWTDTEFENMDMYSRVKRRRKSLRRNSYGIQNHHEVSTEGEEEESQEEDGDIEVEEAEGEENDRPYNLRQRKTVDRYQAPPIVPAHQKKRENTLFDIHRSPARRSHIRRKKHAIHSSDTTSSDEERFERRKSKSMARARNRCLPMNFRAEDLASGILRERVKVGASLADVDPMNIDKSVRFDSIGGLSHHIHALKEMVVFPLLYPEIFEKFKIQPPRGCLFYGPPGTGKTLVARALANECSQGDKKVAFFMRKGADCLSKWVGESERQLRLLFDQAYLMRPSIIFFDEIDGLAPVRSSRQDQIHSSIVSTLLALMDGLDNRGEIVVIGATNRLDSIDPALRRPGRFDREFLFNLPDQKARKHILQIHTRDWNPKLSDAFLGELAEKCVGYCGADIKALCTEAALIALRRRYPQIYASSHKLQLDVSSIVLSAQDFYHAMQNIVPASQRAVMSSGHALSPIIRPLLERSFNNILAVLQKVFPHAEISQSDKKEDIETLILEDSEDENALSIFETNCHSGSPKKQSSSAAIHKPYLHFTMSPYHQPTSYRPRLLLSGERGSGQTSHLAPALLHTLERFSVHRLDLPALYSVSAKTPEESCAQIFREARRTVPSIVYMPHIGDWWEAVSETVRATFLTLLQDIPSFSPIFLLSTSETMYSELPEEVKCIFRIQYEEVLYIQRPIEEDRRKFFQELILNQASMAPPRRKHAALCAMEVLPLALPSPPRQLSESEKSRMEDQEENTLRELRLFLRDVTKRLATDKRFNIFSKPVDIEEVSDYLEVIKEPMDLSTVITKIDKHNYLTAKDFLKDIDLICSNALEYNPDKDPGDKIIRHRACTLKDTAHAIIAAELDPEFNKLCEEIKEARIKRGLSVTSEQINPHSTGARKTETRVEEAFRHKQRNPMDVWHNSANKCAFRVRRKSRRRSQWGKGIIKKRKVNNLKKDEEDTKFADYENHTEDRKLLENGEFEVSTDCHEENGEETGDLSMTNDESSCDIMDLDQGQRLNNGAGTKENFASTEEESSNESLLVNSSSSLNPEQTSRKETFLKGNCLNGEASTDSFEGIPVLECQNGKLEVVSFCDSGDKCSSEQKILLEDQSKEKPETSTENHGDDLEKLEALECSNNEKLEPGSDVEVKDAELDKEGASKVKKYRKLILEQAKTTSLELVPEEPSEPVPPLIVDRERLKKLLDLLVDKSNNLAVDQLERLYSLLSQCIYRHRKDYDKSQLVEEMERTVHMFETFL

[4] = target: T2, Bromodomain-containing protein 1 (Homo sapiens, UniProt O95696); test: Binding affinity to human partial length BRD1 (E556 to A688 residues) expressed in bacterial expression system by BROMOscan assay
T2 sequence (O95696 whole entry): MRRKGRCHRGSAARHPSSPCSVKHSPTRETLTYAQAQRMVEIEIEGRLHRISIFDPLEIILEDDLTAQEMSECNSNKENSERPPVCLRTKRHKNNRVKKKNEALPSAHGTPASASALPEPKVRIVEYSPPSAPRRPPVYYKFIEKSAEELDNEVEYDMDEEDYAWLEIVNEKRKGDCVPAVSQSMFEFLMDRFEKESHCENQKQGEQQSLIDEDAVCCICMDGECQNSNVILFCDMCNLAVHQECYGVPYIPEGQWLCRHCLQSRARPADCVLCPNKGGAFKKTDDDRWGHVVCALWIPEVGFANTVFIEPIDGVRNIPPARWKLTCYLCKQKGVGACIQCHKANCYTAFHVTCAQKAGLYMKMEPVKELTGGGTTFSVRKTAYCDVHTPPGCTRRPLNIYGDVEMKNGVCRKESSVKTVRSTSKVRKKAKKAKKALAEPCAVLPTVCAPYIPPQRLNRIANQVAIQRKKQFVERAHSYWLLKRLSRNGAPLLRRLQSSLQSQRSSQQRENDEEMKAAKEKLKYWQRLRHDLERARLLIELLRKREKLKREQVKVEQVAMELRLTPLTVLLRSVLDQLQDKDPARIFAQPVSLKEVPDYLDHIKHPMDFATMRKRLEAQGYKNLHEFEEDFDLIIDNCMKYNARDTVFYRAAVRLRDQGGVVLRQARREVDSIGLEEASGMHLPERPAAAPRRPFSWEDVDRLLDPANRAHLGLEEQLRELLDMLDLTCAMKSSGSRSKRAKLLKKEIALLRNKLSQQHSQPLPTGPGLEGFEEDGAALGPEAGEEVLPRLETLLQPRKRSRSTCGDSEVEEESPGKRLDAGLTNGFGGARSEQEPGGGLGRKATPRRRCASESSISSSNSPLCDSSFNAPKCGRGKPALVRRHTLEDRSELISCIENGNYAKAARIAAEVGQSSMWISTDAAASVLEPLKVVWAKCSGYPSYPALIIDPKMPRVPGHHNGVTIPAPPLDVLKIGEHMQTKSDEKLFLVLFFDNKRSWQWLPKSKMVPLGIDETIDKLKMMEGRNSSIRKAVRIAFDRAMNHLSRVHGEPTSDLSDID

[5] = target: Histone acetyltransferase KAT2A (Homo sapiens, UniProt Q92830); test: Binding affinity to human partial length GCN5L2 (E726 to K837 residues) expressed in bacterial expression system by BROMOscan assay
[6] = target: Transcription initiation factor TFIID subunit 1-like (Homo sapiens, UniProt Q8IZX4); test: Binding affinity to human partial length TAF1L bromodomain 2 (Q1523 to D1654 residues) expressed in bacterial expression system by BROMOscan assay
[7] = target: Chromatin remodeling regulator CECR2 (Homo sapiens, UniProt Q9BXF3); test: Inhibition of BSP-BODIPY binding to Nanoluc-tagged CECR2 (unknown origin) expressed in HEK293 cells measured after 4 to 6 hrs by NanoBRET assay; type: cell-based
Chromatin remodeling regulator CECR2, sequence (Q9BXF3 whole entry): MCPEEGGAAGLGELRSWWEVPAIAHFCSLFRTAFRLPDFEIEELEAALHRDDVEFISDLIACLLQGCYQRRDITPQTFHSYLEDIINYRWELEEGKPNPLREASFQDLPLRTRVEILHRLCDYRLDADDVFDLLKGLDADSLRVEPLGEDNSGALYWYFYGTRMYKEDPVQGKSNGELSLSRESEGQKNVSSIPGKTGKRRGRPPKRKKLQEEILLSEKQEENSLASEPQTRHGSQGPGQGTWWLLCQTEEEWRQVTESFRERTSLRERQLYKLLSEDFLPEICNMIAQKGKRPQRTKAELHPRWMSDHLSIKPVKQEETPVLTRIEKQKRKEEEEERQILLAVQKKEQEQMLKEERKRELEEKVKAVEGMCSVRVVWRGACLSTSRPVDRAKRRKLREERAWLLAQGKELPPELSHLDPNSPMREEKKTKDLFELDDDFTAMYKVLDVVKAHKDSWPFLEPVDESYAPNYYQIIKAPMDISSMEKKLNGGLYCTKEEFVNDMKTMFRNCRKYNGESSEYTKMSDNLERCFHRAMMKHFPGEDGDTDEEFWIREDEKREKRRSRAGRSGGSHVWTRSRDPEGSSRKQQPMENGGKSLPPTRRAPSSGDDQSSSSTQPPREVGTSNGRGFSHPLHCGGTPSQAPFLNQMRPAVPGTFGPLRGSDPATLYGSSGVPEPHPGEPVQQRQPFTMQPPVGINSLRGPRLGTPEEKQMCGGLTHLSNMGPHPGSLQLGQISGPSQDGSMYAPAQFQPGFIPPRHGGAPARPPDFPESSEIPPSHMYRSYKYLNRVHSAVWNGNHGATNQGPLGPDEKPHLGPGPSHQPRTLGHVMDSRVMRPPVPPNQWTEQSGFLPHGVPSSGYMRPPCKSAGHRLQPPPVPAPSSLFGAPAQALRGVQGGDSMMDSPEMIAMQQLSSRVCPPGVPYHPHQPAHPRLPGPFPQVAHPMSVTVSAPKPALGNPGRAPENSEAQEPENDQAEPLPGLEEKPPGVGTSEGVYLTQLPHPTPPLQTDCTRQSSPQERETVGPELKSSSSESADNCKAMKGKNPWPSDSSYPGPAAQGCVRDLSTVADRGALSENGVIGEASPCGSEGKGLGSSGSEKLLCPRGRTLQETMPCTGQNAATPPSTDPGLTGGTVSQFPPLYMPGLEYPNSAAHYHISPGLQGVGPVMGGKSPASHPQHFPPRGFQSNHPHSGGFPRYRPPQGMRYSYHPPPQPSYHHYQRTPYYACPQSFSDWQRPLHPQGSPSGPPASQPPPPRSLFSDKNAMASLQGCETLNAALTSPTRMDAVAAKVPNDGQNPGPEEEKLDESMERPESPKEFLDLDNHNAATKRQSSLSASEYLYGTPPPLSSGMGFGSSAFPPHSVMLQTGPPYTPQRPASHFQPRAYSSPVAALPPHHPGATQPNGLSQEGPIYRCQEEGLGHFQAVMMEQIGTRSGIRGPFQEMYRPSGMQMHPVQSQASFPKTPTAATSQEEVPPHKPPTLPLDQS

Transcription initiation factor TFIID subunit 1-like, sequence (Q8IZX4 whole entry, the tested form may be a part): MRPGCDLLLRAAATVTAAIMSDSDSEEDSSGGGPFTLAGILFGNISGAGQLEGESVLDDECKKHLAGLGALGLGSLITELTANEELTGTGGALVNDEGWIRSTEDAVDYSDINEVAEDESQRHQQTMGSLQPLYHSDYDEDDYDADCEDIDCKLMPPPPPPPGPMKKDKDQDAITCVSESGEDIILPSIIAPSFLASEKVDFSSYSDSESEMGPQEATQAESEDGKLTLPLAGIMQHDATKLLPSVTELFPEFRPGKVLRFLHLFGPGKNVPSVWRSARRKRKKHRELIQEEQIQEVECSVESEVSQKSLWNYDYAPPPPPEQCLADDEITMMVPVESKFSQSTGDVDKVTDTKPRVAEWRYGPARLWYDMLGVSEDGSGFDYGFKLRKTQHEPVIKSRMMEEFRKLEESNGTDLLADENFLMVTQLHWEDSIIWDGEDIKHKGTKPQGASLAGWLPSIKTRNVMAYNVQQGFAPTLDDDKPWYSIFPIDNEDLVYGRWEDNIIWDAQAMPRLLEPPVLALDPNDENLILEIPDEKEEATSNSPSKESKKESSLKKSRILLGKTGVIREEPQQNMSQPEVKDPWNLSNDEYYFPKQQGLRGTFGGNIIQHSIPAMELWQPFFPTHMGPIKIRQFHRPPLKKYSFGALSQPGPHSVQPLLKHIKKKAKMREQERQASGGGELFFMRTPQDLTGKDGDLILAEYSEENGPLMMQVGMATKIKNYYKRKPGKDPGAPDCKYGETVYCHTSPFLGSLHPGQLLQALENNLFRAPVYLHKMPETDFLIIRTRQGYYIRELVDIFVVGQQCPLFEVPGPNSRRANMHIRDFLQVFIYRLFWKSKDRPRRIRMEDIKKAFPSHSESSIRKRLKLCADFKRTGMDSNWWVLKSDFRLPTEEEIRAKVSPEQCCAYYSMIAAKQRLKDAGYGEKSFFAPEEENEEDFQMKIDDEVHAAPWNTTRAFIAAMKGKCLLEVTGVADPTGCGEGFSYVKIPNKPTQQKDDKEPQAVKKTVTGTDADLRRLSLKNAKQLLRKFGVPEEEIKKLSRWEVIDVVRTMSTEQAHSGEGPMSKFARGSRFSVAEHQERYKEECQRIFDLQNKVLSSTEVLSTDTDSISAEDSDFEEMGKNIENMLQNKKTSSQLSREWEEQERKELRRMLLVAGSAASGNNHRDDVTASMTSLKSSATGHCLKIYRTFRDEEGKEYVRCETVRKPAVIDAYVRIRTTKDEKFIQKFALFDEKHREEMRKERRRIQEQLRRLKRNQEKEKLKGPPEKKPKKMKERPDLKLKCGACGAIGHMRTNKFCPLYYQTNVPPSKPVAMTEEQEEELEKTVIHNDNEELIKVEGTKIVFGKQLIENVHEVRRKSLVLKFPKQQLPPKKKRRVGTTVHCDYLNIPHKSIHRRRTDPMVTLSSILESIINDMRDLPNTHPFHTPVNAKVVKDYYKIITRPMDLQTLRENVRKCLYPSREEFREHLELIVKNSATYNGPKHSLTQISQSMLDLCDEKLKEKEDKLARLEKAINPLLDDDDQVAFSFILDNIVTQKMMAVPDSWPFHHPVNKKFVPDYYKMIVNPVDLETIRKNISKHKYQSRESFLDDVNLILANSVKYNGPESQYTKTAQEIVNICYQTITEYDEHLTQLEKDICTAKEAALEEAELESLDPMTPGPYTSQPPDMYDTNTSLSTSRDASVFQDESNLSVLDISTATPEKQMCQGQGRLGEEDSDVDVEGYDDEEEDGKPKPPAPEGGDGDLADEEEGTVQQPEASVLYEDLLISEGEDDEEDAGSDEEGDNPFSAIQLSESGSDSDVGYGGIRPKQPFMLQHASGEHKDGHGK
Histone acetyltransferase KAT2A, sequence (Q92830 whole entry, the tested form may be a part): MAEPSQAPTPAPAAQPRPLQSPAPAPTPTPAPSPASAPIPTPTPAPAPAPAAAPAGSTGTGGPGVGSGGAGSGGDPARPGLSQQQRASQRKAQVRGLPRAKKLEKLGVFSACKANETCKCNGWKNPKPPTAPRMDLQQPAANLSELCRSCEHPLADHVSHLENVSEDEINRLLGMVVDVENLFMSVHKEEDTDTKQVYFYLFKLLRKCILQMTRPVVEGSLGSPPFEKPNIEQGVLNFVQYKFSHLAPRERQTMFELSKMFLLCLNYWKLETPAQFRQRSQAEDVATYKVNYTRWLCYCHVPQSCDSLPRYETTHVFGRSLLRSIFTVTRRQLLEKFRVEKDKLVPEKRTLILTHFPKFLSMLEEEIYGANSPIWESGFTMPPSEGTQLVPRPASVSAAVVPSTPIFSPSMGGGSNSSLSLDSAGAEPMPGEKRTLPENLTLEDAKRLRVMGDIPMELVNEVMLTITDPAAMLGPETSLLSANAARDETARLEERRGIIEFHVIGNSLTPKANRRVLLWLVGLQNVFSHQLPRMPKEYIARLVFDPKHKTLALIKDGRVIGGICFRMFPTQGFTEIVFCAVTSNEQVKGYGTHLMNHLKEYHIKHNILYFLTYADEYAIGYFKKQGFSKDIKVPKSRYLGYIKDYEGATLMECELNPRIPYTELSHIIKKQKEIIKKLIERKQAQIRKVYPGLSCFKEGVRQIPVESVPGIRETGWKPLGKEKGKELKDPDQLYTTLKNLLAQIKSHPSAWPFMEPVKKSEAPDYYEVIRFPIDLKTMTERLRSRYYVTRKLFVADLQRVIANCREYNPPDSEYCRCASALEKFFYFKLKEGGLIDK

`C[C@H]1CCN(S(=O)(=O)c2cc(NC(=O)CN3C(=O)N[C@@](C)(C4CC4)C3=O)ccc2Br)C1` was tested, and the IC50 [1] was greater than 50100 nM, the IC50 [2] was 12600 nM and the Kd [3] was 20 nM. It also gave a Kd [4] of 126 nM, a Kd [5] of 251 nM and a Kd [6] of 25.1 nM. The IC50 [7] was 251 nM.
